Results published in patent publication US20250195521A1 (Revolution Medicines, Inc., priority 2020, published 2025).
“And” between values parts separate entries of the source, which are not always exact repeats. Equal values may be shown once. Read-outs that look alike come from different tables or passages of the source.

Key:
[1] = system: Capan-1 cells (K-Ras G12V); test: CellTiter-Glo cell viability, Capan-1; format: cell-based, human; conditions: Homo sapiens, CAPAN-1, 120 h, K-Ras G12V, 5-day treatment; read-out: Capan-1 Cell Viability IC50
Procedure, shortened: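 Compounds dispensed directly onto seeded cells; on day 5 plates equilibrated ~30 min to room temperature and luminescence read. Signal normalized to DMSO average (%) and fitted by four-parameter logistic.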

[2] = system: NCI-H358 (K-Ras G12C); test: CellTiter-Glo cell viability assay, NCI-H358; format: cell-based, human; conditions: 5-day treatment, read-out: H358 Cell Viability assay data (K-Ras G12C, IC50)
Procedure, shortened: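 NCI-H358 (K-Ras G12C) cells treated with compound dispensed directly into plates. CellTiter-Glo luminescence read on day 5 after ~30 min equilibration to room temperature. Signal normalised to DMSO average ×100, then fitted with a four-parameter logistic model.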

[3] = biological target: K-Ras G12C(GMP-PNP) binding to BRAF RBD (Homo sapiens (Human), UniProt P01116+P62937, G12C); test: Disruption of BRAF RBD interaction with K-Ras (FRET / MOA assay), K-Ras G12C; format: biochemical
Description: Note—The following protocol describes a procedure for monitoring disruption of K-Ras G12C(GMP-PNP) binding to BRAF^RBD by a compound of the invention. This protocol may also be executed substituting other Ras proteins or nucleotides.
The purpose of this biochemical assay was to measure the ability of test compounds to facilitate ternary complex formation between a nucleotide-loaded K-Ras isoform and Cyclophilin A; the resulting ternary complex disrupts binding to a BRAF^RBD construct, inhibiting K-Ras signaling through a RAF effector. Data is reported as IC50 values.
Compound was present in plate wells as a 10-point 3-fold dilution series starting at a final concentration of 30 μM. After incubation at 25° C. for 3 hours, a mixture of Anti-His Eu—W1024 and anti-GST allophycocyanin was then added to assay sample wells at final concentrations of 10 nM and 50 nM, respectively, and the reaction incubated for an additional 1.5 hours. […] Compounds that facilitate disruption of a K-Ras: RAF complex were identified as those eliciting a decrease in the TR-FRET ratio relative to DMSO control wells.

[4] = system: K-Ras G12C (NCI-H358 cells); test: Potency assay: pERK in NCI-H358 cells; format: cell-based, human; conditions: NCI-H358 cells, 4 hours, read-out: pERK EC50 (H358 KRAS G12C)
Procedure, shortened: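 Cells plated the day before were exposed for 4 h at 37° C, 5% CO2 to a 10-point, 3-fold DMSO dilution series (10 mM top stock), in duplicate. Phospho-ERK was read by AlphaLISA SureFire Ultra or by In-Cell Western with DRAQ5 DNA stain, and IC50 came from a 4-parameter sigmoidal fit.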

[5] = biological target: KRAS G12C (Homo sapiens (Human), UniProt P01116+P62937, G12C); test: Ras-Raf disruption/FRET/MOA assay (BRAF RBD, Cyclophilin A); format: biochemical; conditions: read-out: KRAS G12C FRET IC50
Procedure, shortened: (§1)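 TR-FRET readout: anti-His Eu-W1024 (10 nM) and anti-GST allophycocyanin (50 nM) added after 3 h, 25° C compound incubation, then 1.5 h more. Decrease in FRET ratio versus DMSO wells marks Ras:RAF disruption; IC50 reported.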

[6] = biological target: KRAS WT (Homo sapiens (Human), UniProt P01116+P62937); test: as above; format: biochemical; conditions: read-out: KRAS WT FRET data IC50
Procedure, shortened: as §1

[7] = biological target: KRAS G13C (Homo sapiens (Human), UniProt P01116+P62937, G13C); test: as above; format: biochemical; conditions: read-out: KRAS G13C FRET IC50
Procedure, shortened: as §1

[8] = biological target: KRAS G12D (Homo sapiens (Human), UniProt P01116+P62937, G12D); test: as above; format: biochemical; conditions: read-out: KRAS G12D FRET IC50
Procedure, shortened: as §1

[9] = biological target: KRAS G13D (Homo sapiens (Human), UniProt P01116+P62937, G13D); test: as above; format: biochemical; conditions: read-out: KRAS G13D FRET data IC50
Procedure, shortened: as §1

[10] = biological target: KRAS G12S (Homo sapiens (Human), UniProt P01116+P62937, G12S); test: as above; format: biochemical; conditions: read-out: KRAS G12S FRET IC50
Procedure, shortened: as §1

[11] = biological target: NRAS G12C (Homo sapiens (Human), UniProt P01111+P62937, G12C); test: as above; format: biochemical; conditions: read-out: NRAS G12C FRET data IC50
Procedure, shortened: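 25 μM tagless Cyclophilin A, 12.5 nM His6-Ras-GMPPNP and 50 nM GST-BRAF RBD in HEPES pH 7.3 buffer with 5 mM MgCl2, with compound (10-point 3-fold series from 30 μM final) for 3 h at 25 °C. Anti-His Eu and anti-GST APC then added for 1.5 h. IC50 from TR-FRET ratio decrease versus DMSO.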

[12] = biological target: KRAS G12V (Homo sapiens (Human), UniProt P01116+P62937, G12V); test: as above; format: biochemical; conditions: read-out: KRAS G12V FRET IC50
Procedure, shortened: as §1

KRAS G12C, sequence (P01116-2 other isoform, or with tags, fused parts or gaps G12C): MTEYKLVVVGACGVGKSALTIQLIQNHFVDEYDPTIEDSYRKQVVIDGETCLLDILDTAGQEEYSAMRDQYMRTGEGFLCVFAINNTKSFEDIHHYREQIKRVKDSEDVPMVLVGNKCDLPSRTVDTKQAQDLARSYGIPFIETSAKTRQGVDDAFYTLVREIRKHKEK
KRAS G12C, sequence (P62937 whole entry): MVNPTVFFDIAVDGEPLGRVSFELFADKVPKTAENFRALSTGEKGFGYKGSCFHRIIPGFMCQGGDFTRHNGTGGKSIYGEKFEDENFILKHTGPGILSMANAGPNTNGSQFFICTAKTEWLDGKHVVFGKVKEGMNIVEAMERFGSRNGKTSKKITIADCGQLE
KRAS WT, sequence (P01116 other isoform, or with tags, fused parts or gaps): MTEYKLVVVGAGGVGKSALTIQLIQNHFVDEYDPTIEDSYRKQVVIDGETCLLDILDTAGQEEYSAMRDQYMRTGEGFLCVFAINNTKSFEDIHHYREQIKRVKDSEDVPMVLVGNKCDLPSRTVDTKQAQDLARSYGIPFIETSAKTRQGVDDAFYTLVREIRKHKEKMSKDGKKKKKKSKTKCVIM
KRAS WT, sequence (P62937 whole entry): as the sequence (P62937 whole entry) above
K-Ras G12C(GMP-PNP) binding to BRAF RBD, sequence (P01116 other isoform, or with tags, fused parts or gaps G12C): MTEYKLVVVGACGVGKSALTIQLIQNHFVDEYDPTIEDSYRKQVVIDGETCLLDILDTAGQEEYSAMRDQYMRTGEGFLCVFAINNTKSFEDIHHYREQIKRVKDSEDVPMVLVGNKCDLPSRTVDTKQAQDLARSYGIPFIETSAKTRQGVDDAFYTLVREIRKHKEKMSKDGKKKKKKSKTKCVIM
K-Ras G12C(GMP-PNP) binding to BRAF RBD, sequence (P62937 whole entry): as the sequence (P62937 whole entry) above
KRAS G12D, sequence (P01116 other isoform, or with tags, fused parts or gaps G12D): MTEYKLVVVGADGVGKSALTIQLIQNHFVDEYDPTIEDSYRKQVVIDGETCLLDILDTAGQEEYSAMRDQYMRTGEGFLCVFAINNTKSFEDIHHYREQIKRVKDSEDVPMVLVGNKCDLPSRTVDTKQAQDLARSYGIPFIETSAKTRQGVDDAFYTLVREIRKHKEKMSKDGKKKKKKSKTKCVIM
KRAS G12D, sequence (P62937 whole entry): as the sequence (P62937 whole entry) above
KRAS G13C, sequence (P01116 other isoform, or with tags, fused parts or gaps G13C): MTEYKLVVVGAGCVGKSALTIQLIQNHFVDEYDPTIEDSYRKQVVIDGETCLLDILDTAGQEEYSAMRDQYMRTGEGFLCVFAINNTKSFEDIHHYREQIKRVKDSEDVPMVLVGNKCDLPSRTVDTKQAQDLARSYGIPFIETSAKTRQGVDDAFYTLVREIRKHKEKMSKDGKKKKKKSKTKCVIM
KRAS G13C, sequence (P62937 whole entry): as the sequence (P62937 whole entry) above
KRAS G13D, sequence (P01116 other isoform, or with tags, fused parts or gaps G13D): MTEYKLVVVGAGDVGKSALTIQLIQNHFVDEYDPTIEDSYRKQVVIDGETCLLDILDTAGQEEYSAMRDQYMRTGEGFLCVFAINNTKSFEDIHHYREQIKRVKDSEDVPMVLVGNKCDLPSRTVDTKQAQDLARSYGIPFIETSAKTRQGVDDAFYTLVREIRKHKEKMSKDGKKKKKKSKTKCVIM
KRAS G13D, sequence (P62937 whole entry): as the sequence (P62937 whole entry) above
KRAS G12S, sequence (P01116 other isoform, or with tags, fused parts or gaps G12S): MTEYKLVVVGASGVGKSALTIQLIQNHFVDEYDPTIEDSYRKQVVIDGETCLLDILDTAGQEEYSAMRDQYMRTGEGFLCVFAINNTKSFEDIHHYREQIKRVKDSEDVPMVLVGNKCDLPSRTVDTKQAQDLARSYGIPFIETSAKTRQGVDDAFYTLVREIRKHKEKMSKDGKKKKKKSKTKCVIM
KRAS G12S, sequence (P62937 whole entry): as the sequence (P62937 whole entry) above
NRAS G12C, sequence (P01111 whole entry G12C): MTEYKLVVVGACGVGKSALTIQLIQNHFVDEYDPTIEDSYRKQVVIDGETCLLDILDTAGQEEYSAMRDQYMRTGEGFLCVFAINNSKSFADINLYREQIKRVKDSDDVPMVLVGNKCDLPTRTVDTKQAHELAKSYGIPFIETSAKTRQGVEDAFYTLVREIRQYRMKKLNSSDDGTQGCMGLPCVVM
NRAS G12C, sequence (P62937 whole entry): as the sequence (P62937 whole entry) above
KRAS G12V, sequence (P01116 other isoform, or with tags, fused parts or gaps G12V): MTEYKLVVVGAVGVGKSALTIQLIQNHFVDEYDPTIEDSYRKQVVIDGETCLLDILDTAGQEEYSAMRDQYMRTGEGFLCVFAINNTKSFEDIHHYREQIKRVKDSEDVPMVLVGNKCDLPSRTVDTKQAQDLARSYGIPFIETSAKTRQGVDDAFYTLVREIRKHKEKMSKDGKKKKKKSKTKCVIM
KRAS G12V, sequence (P62937 whole entry): as the sequence (P62937 whole entry) above

Row | IC50 ([2]; Homo sapiens, NCI-H358, 120 h) [µM] | IC50 ([3]; read-out: KRAS G12C FRET IC50) | EC50 ([4]; Homo sapiens) [µM] | IC50 [5] [µM] | IC50 [6] [µM] | IC50 [7] [µM] | IC50 [8] [µM] | IC50 [9] [µM] | IC50 [10] [µM] | IC50 [11] [µM] | IC50 ([3]; KRAS G12C FRET IC50) [µM] | Compound | IC50 [1] [µM] | IC50 [2] [µM] | IC50 [12] [µM] | EC50 [4] [µM]
1 | < 0.01 | 0.01 to 0.1 µM | < 5 | 0.01 to 0.1 | – | – | – | – | – | – | – | CCn1c(-c2cccnc2[C@H](C)OC)c2c3cc(ccc31)-c1cc(O)cc(c1)C[C@H](NC(=O)[C@H](C(C)C)N(C)C(=O)[C@@H]1CNC[C@@H]1C)C(=O)N1CCC[C@H](N1)C(=O)OCC(C)(C)C2 [Compound A128] | > 10 | – | – | –
2 | < 0.01 | < 0.01 µM | – | – | – | – | – | – | – | – | – | CCn1c(-c2cccnc2[C@H](C)OC)c2c3cc(ccc31)-c1cc(O)cc(c1)C[C@H](NC(=O)[C@H](C(C)C)N(C)C(=O)[C@H]1CCN(C(=O)[C@@]3(C)CCCN3)C1)C(=O)N1CCC[C@H](N1)C(=O)OCC(C)(C)C2 [Compound A135] | 1 to 10 | 0.01 to 0.1 | – | –
3 | – | 0.1 to 1 µM and 1 to 10 µM | – | 1 to 10 | > 10 | 1 to 10 | > 10 | > 10 | > 10 | 1 to 10 | – | CCn1c(-c2cccnc2[C@H](C)OC)c2c3cc(ccc31)-c1csc(n1)C[C@H](NC(=O)[C@H](C(C)C)N1CCCC1=O)C(=O)N1CCC[C@H](N1)C(=O)OCC(C)(C)C2 [Compound A212] | > 10 | – | – | –
4 | < 0.01 | 0.01 to 0.1 µM | < 5 | – | – | – | – | – | – | – | – | CCn1c(-c2cccnc2[C@H](C)OC)c2c3cc(ccc31)-c1csc(n1)C[C@H](NC(=O)[C@H](C1CCCC1)N(C)C(=O)N1CCN(C)CC1)C(=O)N1CCC[C@H](N1)C(=O)OCC(C)(C)C2 [Compound A525] | – | – | – | –
5 | < 0.01 | – | < 5 | – | – | – | – | – | – | – | 0.1 to 1 | CCn1c(-c2cccnc2[C@H](C)OC)c2c3cc(ccc31)-c1csc(n1)C[C@H](NC(=O)[C@H](C(C)C)N(C)C(=O)N1CCC(N(C)C)CC1)C(=O)N1CCC[C@H](N1)C(=O)OCC(C)(C)C2 [Compound A571] | – | – | – | –

Second part, the compound before the results:

Row | Compound | IC50 ([2]; Homo sapiens, NCI-H358, 120 h) [µM] | IC50 ([3]; read-out: KRAS G12C FRET IC50) | EC50 ([4]; Homo sapiens) [µM] | IC50 [5] [µM] | IC50 [6] [µM] | IC50 [7] [µM] | IC50 [8] [µM] | IC50 [9] [µM] | IC50 [10] [µM] | IC50 [11] [µM] | IC50 ([3]; KRAS G12C FRET IC50) [µM] | IC50 [1] [µM] | IC50 [2] [µM] | IC50 [12] [µM] | EC50 [4] [µM]
6 | CCn1c(-c2cccnc2[C@H](C)OC)c2c3cc(ccc31)-c1cc(O)cc(c1)C[C@H](NC(=O)[C@H](C(C)C)N(C)C(=O)C1(CN)CC1)C(=O)N1CCC[C@H](N1)C(=O)OCC(C)(C)C2 [Compound A139] | 0.1 to 1 | 0.01 to 0.1 µM | – | 0.01 to 0.1 | 0.01 to 0.1 | 0.01 to 0.1 | 0.01 to 0.1 | 0.01 to 0.1 | – | – | – | – | – | – | –
7 | CCn1c(-c2cnccc2COC)c2c3cc(ccc31)-c1cc(O)cc(c1)C[C@H](NC(=O)[C@H](C(C)C)N(C)C(=O)[C@H]1CN(C(C)=O)C[C@H]1C(F)(F)F)C(=O)N1CCC[C@H](N1)C(=O)OCC(C)(C)C2 [Compound A215] | – | 0.1 to 1 µM and > 10 µM | – | 0.1 to 1 | 0.1 to 1 | 0.01 to 0.1 | 1 to 10 | 0.1 to 1 | 0.1 to 1 | 0.1 to 1 | – | > 10 | – | 0.1 to 1 | –
8 | CCn1c(-c2cccnc2[C@H](C)OC)c2c3cc(ccc31)C1=C[C@@H](O)CN(C1)C[C@H](NC(=O)[C@H]1[C@H](C)[C@@H]1C)C(=O)N1CCC[C@H](N1)C(=O)OCC(C)(C)C2 [Compound A424, (1R,2R,3S)—N-((2^3R,6^3S,4S)-1^1-ethyl-23-hydroxy-1^2-(2-((S)-1-methoxyethyl)pyridin-3-yl)-10,10-dimethyl-5,7-dioxo-2^1,2^2,2^3,2^6,6^1,6^2,6^3,6^4,6^5,6^6-decahydro-1^1H-8-oxa-1 (5,3)-indola-6 (1,3)-pyridazina-2 (5,1)-pyridinacycloundecaphane-4-yl)-2,3-dimethylcyclopropane-1-carboxamide] | – | 0.1 to 1 µM | – | 0.01 to 0.1 | – | 0.01 to 0.1 | 0.1 to 1 | – | 0.01 to 0.1 | – | – | – | 0.1 to 1 | 0.01 to 0.1 | < 5
9 | CCn1c(-c2cccnc2[C@H](C)OC)c2c3cc(ccc31)-c1csc(n1)C[C@H](NC(=O)[C@H](C(C)C)N(C)C(=O)N1CC[C@H]3CN(C)C[C@H]31)C(=O)N1CCC[C@H](N1)C(=O)OCC(C)(C)C2 [Compound A471] | 0.01 to 0.1 | 0.1 to 1 µM | – | – | – | – | – | – | – | – | – | 0.1 to 1 | – | – | –
10 | CCn1c(-c2cccnc2[C@H](C)OC)c2c3cc(ccc31)-c1csc(n1)C[C@H](NC(=O)[C@H](C(C)C)N(C)C(=O)N1CCC13CCOCC3)C(=O)N1CCC[C@H](N1)C(=O)OCC(C)(C)C2 [Compound A601] | < 0.01 | < 0.01 µM | < 5 | – | – | – | – | – | – | – | – | – | – | – | –
